Experimental data: PubChem BioAssay AID1845199 (Molecular Pharmacology Branch, DTP, NCI, 2023)

Test system: 556581-035-R-J1 tumor spheroid viability, % test/control
Assay: Anticancer human tumor 556581-035-R-J1 patient-derived ovarian carcinoma cell line growth inhibition
Conditions: spheroids with HUVEC and MSC; for IC50: curve of first compound; for viability, T/C: stronger effect = lower value
Outline: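 Complex tumor spheroids combined malignant cells with endothelial cells and mesenchymal stem cells. DNA-damaging drugs and DNA repair inhibitors were tested alone and in combination, at half-log dilutions down from clinical Cmax (top 10 microM if Cmax unknown), 0.25% DMSO final.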

[1] = second compound 0.003 µM, first compound 0.0316 µM
[2] = second compound 0.003 µM, first compound 0.1 µM
[3] = second compound 0.003 µM, first compound 0.316 µM
[4] = second compound 0.003 µM, first compound 1 µM
[5] = second compound 0.003 µM, first compound 3.16 µM
[6] = second compound 0.003 µM, first compound 10 µM
[7] = second compound 0.00949 µM, first compound 0.0316 µM
[8] = second compound 0.00949 µM, first compound 0.1 µM
[9] = second compound 0.00949 µM, first compound 0.316 µM
[10] = second compound 0.00949 µM, first compound 1 µM
[11] = second compound 0.00949 µM, first compound 3.16 µM
[12] = second compound 0.00949 µM, first compound 10 µM
[13] = second compound 0.03 µM, first compound 0.0316 µM
[14] = second compound 0.03 µM, first compound 0.1 µM
[15] = second compound 0.03 µM, first compound 0.316 µM
[16] = second compound 0.03 µM, first compound 1 µM
[17] = second compound 0.03 µM, first compound 3.16 µM
[18] = second compound 0.03 µM, first compound 10 µM
[19] = second compound 0.0949 µM, first compound 0.0316 µM
[20] = second compound 0.0949 µM, first compound 0.1 µM
[21] = second compound 0.0949 µM, first compound 0.316 µM
[22] = second compound 0.0949 µM, first compound 1 µM
[23] = second compound 0.0949 µM, first compound 3.16 µM
[24] = second compound 0.0949 µM, first compound 10 µM
[25] = second compound 0.3 µM, first compound 0.0316 µM
[26] = second compound 0.3 µM, first compound 0.1 µM
[27] = second compound 0.3 µM, first compound 0.316 µM
[28] = second compound 0.3 µM, first compound 1 µM
[29] = second compound 0.3 µM, first compound 3.16 µM
[30] = second compound 0.3 µM, first compound 10 µM
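Further: spheroids exposed to compounds for 7 days before viability read.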

| SMILES | IC50 (second compound 0.003 µM) | IC50 (second compound 0.00949 µM) | IC50 (second compound 0.03 µM) | IC50 (second compound 0.0949 µM) | IC50 (second compound 0.3 µM) | viability, T/C [1] | viability, T/C [2] | viability, T/C [3] | viability, T/C [4] | viability, T/C [5] | viability, T/C [6] | viability, T/C [7] | viability, T/C [8] | viability, T/C [9] | viability, T/C [10] | viability, T/C [11] | viability, T/C [12] | viability, T/C [13] | viability, T/C [14] | viability, T/C [15] | other results |
| --- | --- | --- | --- | --- | --- | --- | --- | --- | --- | --- | --- | --- | --- | --- | --- | --- | --- | --- | --- | --- | --- |
| CC(C)n1c(=O)n(C)c2cnc3cc(F)c(-c4ccc(OCCCN5CCCCC5)nc4)cc3c21 + CC[C@@]1(O)C(=O)OCc2c1cc1n(c2=O)Cc2cc3c(CN(C)C)c(O)ccc3nc2-1 | > 10000 nM | > 10000 nM | > 10000 nM | 3370 nM | < 31.6 nM | 84.2% | 85.9% | 80.6% | 82.4% | 62% | 60.6% | 81.9% | 76.4% | 77.6% | 77% | 72.7% | 58.9% | 75% | 73.5% | 71% | viability, T/C [16]: 72.1%; viability, T/C [17]: 66.5%; viability, T/C [18]: 54.5%; viability, T/C [19]: 49.7%; viability, T/C [20]: 51.4%; viability, T/C [21]: 51.7%; viability, T/C [22]: 55.3%; viability, T/C [23]: 50.3%; viability, T/C [24]: 36.8%; viability, T/C [25]: 12.3%; viability, T/C [26]: 12.5%; viability, T/C [27]: 13.1%; viability, T/C [28]: 13.6%; viability, T/C [29]: 12.1%; viability, T/C [30]: 11.6% |
| CC1COCCN1c1cc(-c2ccnn2C)c2ccnc(-c3ccn[nH]3)c2n1 (stereo not given) + CC[C@@]1(O)C(=O)OCc2c1cc1n(c2=O)Cc2cc3c(CN(C)C)c(O)ccc3nc2-1 | 317 nM | 141 nM | < 31.6 nM | < 31.6 nM | < 31.6 nM | 85.3% | 66.5% | 50.2% | 39% | 33.7% | 30.8% | 68.9% | 53.5% | 40.9% | 38.1% | 31.6% | 29.2% | 42% | 35.3% | 35.5% | viability, T/C [16]: 35.1%; viability, T/C [17]: 29.8%; viability, T/C [18]: 28.4%; viability, T/C [19]: 21.6%; viability, T/C [20]: 20%; viability, T/C [21]: 20.5%; viability, T/C [22]: 26.5%; viability, T/C [23]: 27.1%; viability, T/C [24]: 27%; viability, T/C [25]: 4.51%; viability, T/C [26]: 5.08%; viability, T/C [27]: 6.11%; viability, T/C [28]: 10.5%; viability, T/C [29]: 16.3%; viability, T/C [30]: 15.6% |
| COc1cc(C)[nH]c(=O)c1CN1CCc2c(Cl)cc(C(OC)C3COC3)c(Cl)c2C1=O (stereo not given) + CC[C@@]1(O)C(=O)OCc2c1cc1n(c2=O)Cc2cc3c(CN(C)C)c(O)ccc3nc2-1 | > 10000 nM | > 10000 nM | > 10000 nM | < 31.6 nM | < 31.6 nM | 93.5% | 103% | 98.2% | 101% | 101% | 94.9% | 90% | 92.1% | 85.8% | 87.1% | 91.5% | 86.3% | 64.9% | 65.1% | 64.3% | viability, T/C [16]: 65.3%; viability, T/C [17]: 67.9%; viability, T/C [18]: 65.4%; viability, T/C [19]: 45.3%; viability, T/C [20]: 48.7%; viability, T/C [21]: 49.9%; viability, T/C [22]: 49.2%; viability, T/C [23]: 47.9%; viability, T/C [24]: 47.1%; viability, T/C [25]: 13.2%; viability, T/C [26]: 9.94%; viability, T/C [27]: 12.4%; viability, T/C [28]: 12%; viability, T/C [29]: 10.7%; viability, T/C [30]: 11.1% |
| COc1ccc([C@@H](O)c2cc(-c3ncnc4cc(N5CCOCC5)ccc34)c(F)cc2Cl)nn1 + CC[C@@]1(O)C(=O)OCc2c1cc1n(c2=O)Cc2cc3c(CN(C)C)c(O)ccc3nc2-1 | 1960 nM | 1540 nM | 785 nM | < 31.6 nM | < 31.6 nM | 99.8% | 99.8% | 83.4% | 63.7% | 40.5% | 31% | 85% | 86.9% | 75.3% | 57.8% | 37.8% | 31.2% | 70.9% | 64% | 62.9% | viability, T/C [16]: 46.6%; viability, T/C [17]: 33.7%; viability, T/C [18]: 29.5%; viability, T/C [19]: 48.6%; viability, T/C [20]: 47.6%; viability, T/C [21]: 50.5%; viability, T/C [22]: 41.8%; viability, T/C [23]: 30.8%; viability, T/C [24]: 25.5%; viability, T/C [25]: 13.7%; viability, T/C [26]: 11.9%; viability, T/C [27]: 11.6%; viability, T/C [28]: 13.2%; viability, T/C [29]: 17.4%; viability, T/C [30]: 18.5% |
| [2H]c1nc(C)nc([2H])c1-c1cc(NC[C@@H](C)c2cccc3c(C(=O)NC)ccnc23)ncn1 + CC[C@@]1(O)C(=O)OCc2c1cc1n(c2=O)Cc2cc3c(CN(C)C)c(O)ccc3nc2-1 | > 10000 nM | > 10000 nM | > 10000 nM | 5690 nM | < 31.6 nM | 101% | 104% | 101% | 104% | 102% | 101% | 94.9% | 101% | 95.7% | 89.8% | 93.7% | 93.1% | 78.7% | 75.7% | 72.4% | viability, T/C [16]: 74.5%; viability, T/C [17]: 78.3%; viability, T/C [18]: 79%; viability, T/C [19]: 54.6%; viability, T/C [20]: 56%; viability, T/C [21]: 55.6%; viability, T/C [22]: 52.6%; viability, T/C [23]: 50.7%; viability, T/C [24]: 49%; viability, T/C [25]: 13.8%; viability, T/C [26]: 13.9%; viability, T/C [27]: 11.5%; viability, T/C [28]: 9.66%; viability, T/C [29]: 12.9%; viability, T/C [30]: 8.88% |
